In series [1] the target is T1, UGT2B7 (Homo sapiens, UniProt P16662).
T1 sequence (P16662 24-529): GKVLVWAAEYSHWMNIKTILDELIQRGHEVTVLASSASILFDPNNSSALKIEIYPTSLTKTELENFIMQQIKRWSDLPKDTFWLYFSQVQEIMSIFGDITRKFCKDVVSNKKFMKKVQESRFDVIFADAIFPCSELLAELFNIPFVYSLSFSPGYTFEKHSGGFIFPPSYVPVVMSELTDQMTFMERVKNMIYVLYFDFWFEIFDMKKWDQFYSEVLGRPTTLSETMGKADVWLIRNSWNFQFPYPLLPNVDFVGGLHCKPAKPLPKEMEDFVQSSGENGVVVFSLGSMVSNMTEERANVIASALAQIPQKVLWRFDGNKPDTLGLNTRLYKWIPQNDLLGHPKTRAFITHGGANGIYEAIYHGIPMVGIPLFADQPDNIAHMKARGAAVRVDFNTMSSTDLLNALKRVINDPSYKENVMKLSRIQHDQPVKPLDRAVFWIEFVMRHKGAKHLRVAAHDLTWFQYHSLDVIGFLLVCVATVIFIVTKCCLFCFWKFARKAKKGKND
Nature of the series: Inhibition screening of morphine glucuronidation in pooled human liver microsomes (HLM). Conditions: 100 µM cannabinoid. In general terms: Liver microsomes are a subcellular fraction often used to study metabolism.

Series [2] is described as follows: Estimated unbound maximum hepatic inlet concentration used for the static model. Conditions: human, hepatic inlet (unbound). How it is done:
(8) [I]h=fu,p×Cmax+Fa ×Fg×Ka×Dose/Qh ×Rb
For the static mechanistic modeling, hepatic blood flow (Qh) and enterocyte blood flow (Qen) were set to 1500 mL/min and 300 mL/min, respectively, and the blood-to-plasma concentration ratio (RB) was set to 0.4 [55].
C௠௔௫ ,௛௘௣௔௧௜௖ ௜௡௟௘௧ ,௨ ൌ f௨,௣ ൈ ቀC௠௔௫ ൅ ிೌ ൈ ி೒ ൈ ௄ೌ ൈ஽௢௦௘ொ೓ ൈ ோ್ቁ, where fu,p (unbound fraction in plasma) wa s set

For series [3], the target named is T1, UGT2B7. The series can be described thus: IC50 determination and calculated Ki, morphine glucuronidation in HLM. Conditions: human, human liver microsomes; for IC50: IC50,u, corrected for non-specific binding with fu,inc (11-OH-THC fu,inc as surrogate for 11-COOH-THC and 7-OH-CBD).
Series [4] deals with T1, UGT2B7. Nature of the series: in vitro. The note with it: human liver microsomes, probe morphine […] (morphine-6-glucuronide formation).
The conditions of series [5]: cited from earlier work.
For series [6], the target named is T2, UGT2B7 (Homo sapiens, UniProt P16662, Y268H).
T2 sequence (P16662 24-529 Y268H): T1 sequence (P16662 24-529) with Y245H
Nature of the series: in vitro.

Series [7] addresses T2, UGT2B7. The series can be described thus: Inhibition screening of morphine glucuronidation in rUGT2B7-overexpressing HEK293 cell microsomes. The note with it: rUGT-overexpressing microsomes and HLM.

Numbering of substitutions follows the chain as printed.

With `C=C(C)[C@@H]1CCC(C)=C[C@H]1c1c(O)cc(CCCCC)cc1O` [CBD, cannabidiol, reference compound], the “inhibition of M3G and M6G formation in HLM (in words)” value on UGT2B7 [1] is reported as “significant inhibition”. For the same compound, the Cmax in series [2] (inhaled or intranasal, 19 mg) was 350 nM; in series [2] (po, 70 mg), 90 nM; in series [2] (po, 700 mg), 890 nM; in series [2] (po, 2000 mg) it was 2540 nM. Also, the Ki on UGT2B7 [3] (probe morphine […] (morphine-3-glucuronide formation), Calculated Ki, Morphine-3-Glucuronide, Ki=IC50/2 assuming competitive inhibition) is 4.11 ± 2.24 µM; at UGT2B7 [3] (probe morphine […] (morphine-6-glucuronide formation), Calculated Ki, Morphine-6-Glucuronide, Ki=IC50/2 assuming competitive inhibition), 3.16 ± 1.32 µM; at UGT2B7 [3] (probe morphine […] (morphine-6-glucuronide formation), Calculated Ki,u, Morphine-6-Glucuronide, Ki corrected with fu,inc), 0.16 ± 0.07 µM. Moreover, the concentration for half-maximal inhibition (IC50) is 0.42 ± 0.23 µM on UGT2B7 [3] (probe morphine […] (morphine-3-glucuronide formation), Morphine-3-Glucuronide formation); 0.32 ± 0.13 µM at UGT2B7 [3] (probe morphine […] (morphine-6-glucuronide formation), Morphine-6-Glucuronide formation); 6.3 ± 2.6 µM at UGT2B7 [4]. Further, in series [5] (after consumption), the “Cmax,u” value is 130 nM. Further, the “ka (first-order absorption rate constant)” value in series [5] (value set for the static model, ref Cox et al., 2019 [45]) was 0.02. Also, the inhibition at 100 µM at UGT2B7 [6] (microsomes of HEK293 cells overexpressing recombinant UGT2B7, probe morphine […] (morphine-3-glucuronide formation)) came out at 99%; at UGT2B7 [6] (microsomes of HEK293 cells overexpressing recombinant UGT2B7, probe morphine […] (morphine-6-glucuronide formation)), 98%. Moreover, the “inhibition of UGT2B7-mediated morphine metabolism (overall, in words)” value at UGT2B7 [7] is on record as “strong inhibition”.

The term Cmax denotes the highest concentration seen after dosing. Usually Ki stands for the dissociation constant of the complex between target and ligand, obtained from inhibition or displacement. Broadly, the IC50 is the point on the concentration scale where inhibition reaches its midpoint. In general, inhibition refers to the share of the control response that was lost under treatment.

The record behind these values is PMC10975434 (Pharmaceutics, 2024).
